According to ChEMBL document CHEMBL3832080, “DailyMed|setid=f3c5895f-f54b-43d4-9b38-7bfbdf8335b7 | CEFOTAXIME - cefotaxime injection, powder, for solution|WOCKHARDT USA LLC”:

What was measured:
[1] = (§1) Pharmacokinetics parameters for Cefotaxine evaluated after single IV or intramuscular (IM) administration of Cefotaxine to normal volunteers.; type: ADME, organism-based; set-up: dose 1 g, dose 500 mg, dose 2 g, route iv, route im; conditions: human, in vivo, regimen Single dose
Homo sapiens = experiment: as §1; type: ADME, organism-based; set-up: dose 1 g, dose 500 mg, dose 2 g, route iv, route im; conditions: in vivo, im, dose 500 mg, dosed compound id 59, dosed compound name CEFOTAXIME, regimen Single dose, tissue Serum
[2] = dose 1 g, dosed compound id 59, dosed compound name CEFOTAXIME, route im, tissue Serum

Compound: CO/N=C(\C(=O)N[C@@H]1C(=O)N2C(C(=O)[O-])=C(COC(C)=O)CS[C@H]12)c1csc(N)n1.[Na+] [CEFOTAXIME SODIUM]
- half-life ([1]; dose 50 mg/kg, dosed compound id 59, dosed compound name CEFOTAXIME, route iv, study dosing duration 10 to 15 minutes, tissue Urine): 4.6 h
- Tmax [1, 2]: 0.5 h
- half-life [1, 2]: 1 h
- dose excreted ([1]; dosed compound id 590, dosed compound name 14C-CEFOTAXIME, route iv, tissue Urine, read-out: Excretion): 20 to 36%
- Tmax (Homo sapiens): 0.5 h
- t1/2 (Homo sapiens): 1 h
